Source: US20100168079A1 (priority 2008, published 2010)
pIC50: −log10 of the molar value.

Tests used:
human S1P1 receptors = molecular target: T1, human S1P1 receptors (Homo sapiens, UniProt P21453); experiment: Human S1P1 Receptor Calcium FLIPR Antagonist Assay (HeLa Gα16 S1P1); type: cell-based; details: relative antagonism of Ca2+ signal evoked by probing agonist GNF-AC-1 at EC80; HeLa-S1P1/Gα16 cells
T1 construct: myc (N); expressed in transfected cells; host or cells: HeLa (human cervix carcinoma, ATCC CCL2), HeLa-S1P1/Gα16 cell clone 1
T1 sequence (P21453 whole entry): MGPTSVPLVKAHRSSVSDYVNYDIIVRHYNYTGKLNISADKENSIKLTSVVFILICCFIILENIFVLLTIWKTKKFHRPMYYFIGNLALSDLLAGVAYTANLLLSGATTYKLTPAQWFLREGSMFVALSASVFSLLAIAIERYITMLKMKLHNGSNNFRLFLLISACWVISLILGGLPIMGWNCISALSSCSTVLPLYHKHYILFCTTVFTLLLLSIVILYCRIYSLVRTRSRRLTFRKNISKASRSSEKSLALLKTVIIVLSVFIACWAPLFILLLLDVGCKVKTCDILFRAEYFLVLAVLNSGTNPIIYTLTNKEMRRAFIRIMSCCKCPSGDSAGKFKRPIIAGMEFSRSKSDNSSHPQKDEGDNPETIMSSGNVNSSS
Method in brief: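 HeLa Gα16 cells expressing S1P1 loaded for calcium fluorescence on FLIPR; compounds added in HBSS with 0.1% BSA, then agonist at EC80 20-30 min later. IC50 from (Fmax-Fmin)/Fmin versus log compound concentration.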

circulating lymphocytes = experiment: Measurement of Circulating Lymphocytes; type: in vivo, Rats (Lewis strain, male); details: Rattus norvegicus, Lymphocyte; male Lewis rats, 14 hours after oral 30 mg/kg, compared to vehicle-only group; mean±SEM; read-out: Residual Lymphocyte Counts 14 hours after 30 mg/kg p.o. dosing
Procedure: The compounds of formula (I) typically induce the depletion of blood lymphocyte as may be determined in the assay described below. Moreover, compounds of formula (I) are typically efficacious in the said assay also when administered via the per oral route of administration.
Measurement of Circulating Lymphocytes:
The test compounds (or salts thereof) are dissolved in a vehicle such as water, saline, PEG (polyethylene glycol) 200, or PBS (phosphate buffered saline). Rats (Lewis strain, male, 6-12 weeks old) are administered up to 100 mg/kg of the test compounds in 2 ml/kg vehicle via per oral or subcutaneous application. The vehicle or a reference salt and FTY720 (0.3 mg/kg) are included as negative and positive controls, respectively.
Blood is collected from the sublingual vein before and 2, 8 and 24 hours or 14, 18 and 24 hours after the test compound administration under short isoflurane anesthesia. Whole blood samples are subjected to hematology analysis. Peripheral lymphocyte counts are determined using an automated analyzer. The Haemathology System uses a combination of light scatter, cytochemical staining and nuclear density on two independent channels to measure the total and differential white cell counts. Two to four rats are used to assess the lymphocyte depletion activity of each compound screened. The data are presented as mean±SEM.

| pIC50 (human S1P1 receptors) | SMILES | response vs control in vivo at 30 mg/kg (circulating lymphocytes) [%] |
| --- | --- | --- |
| 8.70 | CCC(Nc1ccc(F)c(-c2cc(C)c(C(=O)NC3(C(=O)O)CC3)c(C)c2)c1)c1ccc(Cl)c(C)c1 (stereo not shown) [Example 25, 1-({5′-[1-(4-Chloro-3-methyl-phenyl)-propylamino]-2′-fluoro-3,5-dimethyl-biphenyl-4-carbonyl}-amino)-cyclopropanecarboxylic acid] | 15 |
| 9.00 | Cc1cc(C(C)Nc2ccc(F)c(-c3cc(C)c(C(=O)NC4(C(=O)O)CC4)c(C)c3)c2)ccc1Cl (stereo not shown) [Example 26, 1-({5′-[1-(4-Chloro-3-methyl-phenyl)-ethylamino]-2′-fluoro-3,5-dimethyl-biphenyl-4-carbonyl}-amino)-cyclopropanecarboxylic acid] | 12.9 |
| 8.40 | Cc1cc([C@@H](C)Nc2cccc(-c3cc(C)c(C(=O)N(C)[C@@H](C)C(=O)O)c(C)c3)c2)ccc1Cl [Example 73] | 16.6 |
| 8.10 | Cc1cc(C(Nc2cccc(-c3cc(C)c(C(=O)N[C@@H](C)C(=O)O)c(C)c3)c2)C(F)(F)F)ccc1Cl (stereo partly drawn) [Example 74, (S)-2-({3′-[1-(4-Chloro-3-methyl-phenyl)-2,2,2-trifluoro-ethylamino]-3,5-dimethyl-biphenyl-4-carbonyl}-amino)-propionic acid] | 15.5 |
| 8.22 | Cc1cc(C(Nc2cccc(-c3cc(C)c(C(=O)N[C@@H](C)C(=O)O)c(C)c3)c2)C(F)F)ccc1Cl (stereo partly drawn) [Example 75, (S)-2-({3′-[1-(4-Chloro-3-methyl-phenyl)-2,2-difluoro-ethylamino]-3,5-dimethyl-biphenyl-4-carbonyl}-amino)-propionic acid] | 19.4 |
| 9.00 | Cc1cc([C@@H](C)Nc2cccc(-c3cc(C)c(C(=O)N(C)C4(C(=O)O)CC4)c(C)c3)c2)ccc1Cl [Example 81, 1-({3′-[(R)-1-(4-Chloro-3-methyl-phenyl)-ethylamino]-3,5-dimethyl-biphenyl-4-carbonyl}-methyl-amino)-cyclopropanecarboxylic acid] | 15.4 |
| 8.52 | Cc1cc(C(C)(C)Nc2cccc(-c3cc(C)c(C(=O)N[C@@H](C)C(=O)O)c(C)c3)c2)ccc1Cl [Example 82, (S)-2-({3′-[1-(4-Chloro-3-methyl-phenyl)-1-methyl-ethylamino]-3,5-dimethyl-biphenyl-4-carbonyl}-amino)-propionic acid] | 10.8 |
| 8.70 | Cc1cc(C(C)(C)Nc2cccc(-c3cc(C)c(C(=O)N(C)[C@@H](C)C(=O)O)c(C)c3)c2)ccc1Cl [Example 83, (S)-2-({3′-[1-(4-Chloro-3-methyl-phenyl)-1-methyl-ethylamino]-3,5-dimethyl-biphenyl-4-carbonyl}-methyl-amino)-propionic acid] | 15.2 |
| 8.70 | Cc1cc(C(C)(C)Nc2cccc(-c3cc(C)c(C(=O)NC4(C(=O)O)CC4)c(C)c3)c2)ccc1Cl [Example 84, 1-({3′-[1-(4-Chloro-3-methyl-phenyl)-1-methyl-ethylamino]-3,5-dimethyl-biphenyl-4-carbonyl}-amino)-cyclopropanecarboxylic acid] | 18.6 |
| 7.96 | Cc1cc(C(C)(C)Nc2cccc(-c3cc(C)c(C(=O)N(C)C4(C(=O)O)CC4)c(C)c3)c2)ccc1Cl [Example 85, 1-({3′-[1-(4-Chloro-3-methyl-phenyl)-1-methyl-ethylamino]-3,5-dimethyl-biphenyl-4-carbonyl}-methyl-amino)-cyclopropanecarboxylic acid] | 14.7 |
| 9.00 | Cc1cc([C@@H](C)Nc2cccc(-c3cc(C)c(C(=O)NC4(C(=O)O)CC4)c(C)c3)c2)cc(C)c1Cl [Example 99, 1-({3′-[(R)-1-(4-Chloro-3,5-dimethyl-phenyl)-ethylamino]-3,5-dimethyl-biphenyl-4-carbonyl}-amino)-cyclopropanecarboxylic acid] | 15.5 |
| 9.00 | Cc1cc([C@@H](C)Nc2cccc(-c3cc(C)c(C(=O)N[C@@H](C)C(=O)O)c(C)c3)c2)cc(C)c1Cl [Example 100, (S)-2-({3′-[(R)-1-(4-Chloro-3,5-dimethyl-phenyl)-ethylamino]-3,5-dimethyl-biphenyl-4-carbonyl}-amino)-propionic acid] | 20.9 |
| 8.52 | Cc1cc(C(Nc2cccc(-c3cc(C)c(C(=O)N(C)[C@@H](C)C(=O)O)c(C)c3)c2)C(F)F)ccc1Cl (stereo partly drawn) [Example 103, (S)-2-({3′-[1-(4-Chloro-3-methyl-phenyl)-2,2-difluoro-ethylamino]-3,5-dimethyl-biphenyl-4-carbonyl}-methyl-amino)-propionic acid] | 13.9 |
| 8.00 | CC[C@H](c1ccc(Cl)c(C)c1)N(C)c1cccc(-c2cc(C)c(C(=O)N(C)[C@@H](C)C(=O)O)c(C)c2)c1 [Example 105, (S)-2-[(3′-{[(R)-1-(4-Chloro-3-methyl-phenyl)-propyl]-methyl-amino}-3,5-dimethyl-biphenyl-4-carbonyl)-methyl-amino]-propionic acid] | 20.9 |
| 8.70 | Cc1cc([C@H](Nc2cccc(-c3cc(C)c(C(=O)N[C@@H](C)C(=O)O)c(C)c3)c2)C(F)(F)F)ccc1Cl [Example 106, (S)-2-({3′-[(S)-1-(4-Chloro-3-methyl-phenyl)-2,2,2-trifluoro-ethylamino]-3,5-dimethyl-biphenyl-4-carbonyl}-amino)-propionic acid] | 10.9 |
| 8.10 | CC[C@H](c1ccc(Cl)c(C)c1)N(C)c1cccc(-c2cc(C)c(C(=O)NC3(C(=O)O)CC3)c(C)c2)c1 [Example 108, 1-[(3′-{[(R)-1-(4-Chloro-3-methyl-phenyl)-propyl]-methyl-amino}-3,5-dimethyl-biphenyl-4-carbonyl)-amino]-cyclopropanecarboxylic acid] | 19.6 |
| 8.70 | CC[C@@H](Nc1cccc(-c2cc(C)c(C(=O)NC3(C(=O)O)CC3)c(C)c2)c1)c1ccc(Cl)c(C)c1 [Example 109, 1-({3′-[(R)-1-(4-Chloro-3-methyl-phenyl)-propylamino]-3,5-dimethyl-biphenyl-4-carbonyl}-amino)-cyclopropanecarboxylic] | 19.1 |
| 8.70 | Cc1cc([C@H](Nc2cccc(-c3cc(C)c(C(=O)NC4(C(=O)O)CC4)c(C)c3)c2)C(F)(F)F)ccc1Cl [Example 112, 1-({3′-[(S)-1-(4-Chloro-3-methyl-phenyl)-2,2,2-trifluoro-ethylamino]-3,5-dimethyl-biphenyl-4-carbonyl}-amino)-cyclopropanecarboxylic acid] | 18.3 |
| 8.70 | CC[C@@H](Nc1ccc(F)c(-c2cc(C)c(C(=O)NC3(C(=O)O)CC3)c(C)c2)c1)c1ccc(Cl)c(C)c1 [Example 115, 1-({5′-[(R)-1-(4-Chloro-3-methyl-phenyl)-propylamino]-2′-fluoro-3,5-dimethyl-biphenyl-4-carbonyl}-amino)-cyclopropanecarboxylic acid] | 15.8 |
| 8.70 | CC[C@@H](Nc1ccc(F)c(-c2cc(C)c(C(=O)N(C)[C@@H](C)C(=O)O)c(C)c2)c1)c1ccc(Cl)c(C)c1 [Example 117, (S)-2-({5′-[(R)-1-(4-Chloro-3-methyl-phenyl)-propylamino]-2′-fluoro-3,5-dimethyl-biphenyl-4-carbonyl}-methyl-amino)-propionic acid] | 15 |
